Laboratory results as given in patent US8129398B2 (priority 2008, dated 2012).

Molecular target: T1, HIV-integrase (Human immunodeficiency virus type 1 group M subtype B, UniProt P12497)
T1 construct: Recombinant integrase (0.26 ng) was incubated with the beads
Test: HIV-Integrase Inhibition Activity (SPA bead integration assay with P33 labeled target DNA)
Format: biochemical
Details: recombinant integrase, class symbols; read-out: in vitro activity
Method in brief: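 Strand integration read as bead-proximity CPM after P33 target DNA (0.1 fmol) and inhibitor were added to washed integrase–substrate DNA complexes on SPA beads. Enzyme bound 90 min at 37° C; EDTA (10 mM final) terminated reaction; IC50 graded A/B/C.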

| Structure (SMILES) | IC50 [nM] |
| --- | --- |
| O=C(NC12CCC(CC1)Cn1c2nc(C(=O)NCc2ccc(F)cc2)c(O)c1=O)C(=O)N1CCN(C(=O)C2CCCO2)CC1 (centres unmarked) [Example 74, N-(4-Fluorobenzyl)-3-hydroxy-4-oxo-10-((oxo(4-(tetrahydro-2-furanylcarbonyl)-1-piperazinyl)acetyl)amino)-4,6,7,8,9,10-hexahydro-7,10-ethanopyrimido[1,2-a]azepine-2-carboxamide] | < 10 |
| CC(CCc1ccccc1)NC(=O)c1nc2n(c(=O)c1O)CC1CCC2(NC(=O)C(=O)N(C)C)CC1 (centres unmarked) [Example 339] | 10 to 100 |
| CNC(=O)c1cn(C(C)(C)C(=O)NC23CCC(CC2)Cn2c3nc(C(=O)NCc3ccc(F)c(C)c3)c(O)c2=O)nn1 [Example 286, 7,10-Ethanopyrimido[1,2-a]azepine-2-carboxamide, N-[(4-fluoro-3-methylphenyl)methyl]-4,6,7,8,9,10-hexahydro-3-hydroxy-10-[[2-methyl-2-[4-[(methylamino)carbonyl]-1H-1,2,3-triazol-1-yl]-1-oxopropyl]amino]-4-oxo-] | < 10 |
| O=C(NC12CCC(CC1)Cn1c2nc(C(=O)NCc2ccc(F)cc2)c(O)c1=O)C(=O)N1CCC(O)CC1 [Example 63, N-(4-Fluorobenzyl)-3-hydroxy-10-(((4-hydroxy-1-piperidinyl)(oxo)acetyl)amino)-4-oxo-4,6,7,8,9,10-hexahydro-7,10-ethanopyrimido[1,2-a]azepine-2-carboxamide] | < 10 |
| CN(C)CC(=O)NC12CCC(CC1)Cn1c2nc(C(=O)NCc2ccc(F)cc2)c(O)c1=O [Example 29, 10-((N,N-Dimethylglycyl)amino)-N-(4-fluorobenzyl)-3-hydroxy-4-oxo-4,6,7,8,9,10-hexahydro-7,10-ethanopyrimido[1,2-a]azepine-2-carboxamide] | 10 to 100 |
| CN(C)C(=O)C(=O)NC12CCC(CC1)Cn1c2nc(C(=O)NCc2ccc(Cl)cc2Cl)c(O)c1=O [Example 368] | < 10 |
| CC(=O)NC12CCC(Cn3c1nc(C(=O)NCc1ccc(F)cc1)c(O)c3=O)OC2 (centres unmarked) [Example 221, 10-(Acetylamino)-N-(4-fluorobenzyl)-3-hydroxy-4-oxo-4,6,7,8,9,10-hexahydro-7,10-(epoxymethano)pyrimido[1,2-a]azepine-2-carboxamide] | < 10 |
| O=C(NCc1ccc(F)cc1)c1nc2n(c(=O)c1O)CC1CNCC2C1 (centres unmarked) [Example 7, 7,11-Methano-4H-pyrimido[1,2-a][1,5]diazocine-2-carboxamide, N-[(4-fluorophenyl)methyl]-6,7,8,9,10,11-hexahydro-3-hydroxy-4-oxo-] | 10 to 100 |
| COc1c(C(=O)NCc2ccc(F)cc2)nc2n(c1=O)CC1CCC2(NC(=O)CCC(=O)O)CC1 [Example 308, Butanoic acid, 4-[[2-[[[(4-fluorophenyl)methyl]amino]carbonyl]-6,7,8,9-tetrahydro-3-methoxy-4-oxo-7,10-ethanopyrimido[1,2-a]azepin-10(4H)-yl]amino]-4-oxo-] | > 100 |
| CN(C)C(=O)C(=O)NC12CCC(CC1)Cn1c2nc(C(=O)NCc2ccc3nccn3c2)c(O)c1=O [Example 244, Ethanediamide, N,N-dimethyl-N′-[6,7,8,9-tetrahydro-3-hydroxy-2-[[(imidazo[1,2-a]pyridin-6-ylmethyl)amino]carbonyl]-4-oxo-7,10-ethanopyrimido[1,2-a]azepin-10(4H)-yl]-] | 10 to 100 |
| CN(C)C(=O)C(=O)NC12CCC(CC1)Cn1c2nc(C(=O)NCc2ccc(F)c(C3CC3)c2)c(O)c1=O [Example 128, N′-(2-((3-Cyclopropyl-4-fluorobenzyl)carbamoyl)-3-hydroxy-4-oxo-6,7,8,9-tetrahydro-7,10-ethanopyrimido[1,2-a]azepin-10(4H)-yl)-N,N-dimethylethanediamide] | < 10 |
| CN(C)C(=O)C(=O)NC12CCC(CC1)Cn1c2nc(C(=O)NCc2cccc(Cl)c2)c(O)c1=O [Example 380] | < 10 |
| CN(C)C(=O)C(=O)NC12CCC(CC1)Cn1c2nc(C(=O)NCCc2ccccc2Cl)c(O)c1=O [Example 344] | 10 to 100 |
| Cc1nn(C)cc1CN(C)C(=O)C(=O)N(C)C12CCC(CC1)Cn1c2nc(C(=O)NCc2ccc(F)cc2)c(O)c1=O [Example 169, N-((1,3-Dimethyl-1H-pyrazol-4-yl)methyl)-N′-(2-((4-fluorobenzyl)carbamoyl)-3-hydroxy-4-oxo-6,7,8,9-tetrahydro-7,10-ethanopyrimido[1,2-a]azepin-10(4H)-yl)-N,N′-dimethylethanediamide] | < 10 |
| NC12CCC(Cn3c1nc(C(=O)NCc1ccc(F)cc1)c(O)c3=O)OC2 (centres unmarked) [Example 220, 10-Amino-N-(4-fluorobenzyl)-3-hydroxy-4-oxo-4,6,7,8,9,10-hexahydro-7,10-(epoxymethano)pyrimido[1,2-a]azepine-2-carboxamide] | 10 to 100 |
| Cc1cc(C(=O)NC23CCC(CC2)Cn2c3nc(C(=O)NCc3ccc(F)cc3)c(O)c2=O)no1 [Example 28, N-(4-Fluorobenzyl)-3-hydroxy-10-(((5-methyl-3-isoxazolyl)carbonyl)amino)-4-oxo-4,6,7,8,9,10-hexahydro-7,10-ethanopyrimido[1,2-a]azepine-2-carboxamide] | < 10 |
| O=C(NC12CCC(CC1)Cn1c2nc(C(=O)NCc2ccc(F)cc2)c(O)c1=O)C(=O)N1CCCCC1 [Example 59, N-(4-Fluorobenzyl)-3-hydroxy-4-oxo-10-((oxo(1-piperidinyl)acetyl)amino)-4,6,7,8,9,10-hexahydro-7,10-ethanopyrimido[1,2-a]azepine-2-carboxamide] | < 10 |
| Cn1nccc1C(=O)NC12CCC(CC1)Cn1c2nc(C(=O)NCc2ccc(F)cc2)c(O)c1=O [Example 247, 7,10-Ethanopyrimido[1,2-a]azepine-2-carboxamide, N-[(4-fluorophenyl)methyl]-4,6,7,8,9,10-hexahydro-3-hydroxy-10-[[(1-methyl-1H-pyrazol-5-yl)carbonyl]amino]-4-oxo-] | < 10 |
| Cc1cnnn1-c1cc(F)ccc1CNC(=O)c1nc2n(c(=O)c1O)CC1CCC2(NC(=O)C(=O)N(C)C)CC1 [Example 106, N′-(2-((4-Fluoro-2-(5-methyl-1H-1,2,3-triazol-1-yl)benzyl)carbamoyl)-3-hydroxy-4-oxo-6,7,8,9-tetrahydro-7,10-ethanopyrimido[1,2-a]azepin-10(4H)-yl)-N,N-dimethylethanediamide] | 10 to 100 |
| CN(C)C12CCC(Cn3c1nc(C(=O)NCc1ccc(F)cc1)c(O)c3=O)C2 (centres unmarked) [Example 195, 7,10-Methanopyrimido[1,2-a]azepine-2-carboxamide, 10-(dimethylamino)-N-[(4-fluorophenyl)methyl]-4,6,7,8,9,10-hexahydro-3-hydroxy-4-oxo-] | 10 to 100 |
| COc1cc(CNC(=O)c2nc3n(c(=O)c2O)CC2CCC3(NC(=O)C(=O)N(C)C)CC2)ccc1F [Example 133, N′-(2-((4-Fluoro-3-methoxybenzyl)carbamoyl)-3-hydroxy-4-oxo-6,7,8,9-tetrahydro-7,10-ethanopyrimido[1,2-a]azepin-10(4H)-yl)-N,N-dimethylethanediamide] | < 10 |
| CN(C)C(=O)C(=O)NC12CCC(CC1)Cn1c2nc(C(=O)NCc2ccc(F)c(C#N)c2)c(O)c1=O [Example 132, N′-(2-((3-Cyano-4-fluorobenzyl)carbamoyl)-3-hydroxy-4-oxo-6,7,8,9-tetrahydro-7,10-ethanopyrimido[1,2-a]azepin-10(4H)-yl)-N,N-dimethylethanediamide] | < 10 |
| CN(C)C(=O)C(=O)NC12CCC(CC1)Cn1c2nc(C(=O)NC2CCN(Cc3ccccc3)C2)c(O)c1=O (centres unmarked) [Example 356] | > 100 |
| O=C(NC12CCC(CC1)Cn1c2nc(C(=O)NCc2ccc(F)cc2)c(O)c1=O)c1ccc(C(F)(F)F)nc1 [Example 323, 7,10-Ethanopyrimido[1,2-a]azepine-2-carboxamide, N-[(4-fluorophenyl)methyl]-4,6,7,8,9,10-hexahydro-3-hydroxy-4-oxo-10-[[[6-(trifluoromethyl)-3-pyridinyl]carbonyl]amino]-] | < 10 |
| CN(C)C(=O)C(=O)NC12CCC(CC1)Cn1c2nc(C(=O)NCc2ccc(F)cc2-c2nncn2C)c(O)c1=O [Example 109, N′-(2-((4-Fluoro-2-(4-methyl-4H-1,2,4-triazol-3-yl)benzyl)carbamoyl)-3-hydroxy-4-oxo-6,7,8,9-tetrahydro-7,10-ethanopyrimido[1,2-a]azepin-10(4H)-yl)-N,N-dimethylethanediamide] | 10 to 100 |
| CC(C)(O)C(=O)NC12CCC(CC1)Cn1c2nc(C(=O)NCc2ccc(F)cc2)c(O)c1=O [Example 261, 7,10-Ethanopyrimido[1,2-a]azepine-2-carboxamide, N-[(4-fluorophenyl)methyl]-4,6,7,8,9,10-hexahydro-3-hydroxy-10-[(2-hydroxy-2-methyl-1-oxopropyl)amino]-4-oxo-] | < 10 |
| CC(=O)NC12CCCC(Cn3c1nc(C(=O)NCc1ccc(F)cc1)c(O)c3=O)C2 (centres unmarked) [Example 187, 7,11-Methano-4H-pyrimido[1,2-a]azocine-2-carboxamide, 11-(acetylamino)-N-[(4-fluorophenyl)methyl]-6,7,8,9,10,11-hexahydro-3-hydroxy-4-oxo-] | < 10 |
| O=C(NC12CCC(CC1)Cn1c2nc(C(=O)NCc2ccc(F)cc2)c(O)c1=O)C(=O)N1CCC[C@H]1CO [Example 69, N-(4-Fluorobenzyl)-3-hydroxy-10-((((2S)-2-(hydroxymethyl)-1-pyrrolidinyl)(oxo)acetyl)amino)-4-oxo-4,6,7,8,9,10-hexahydro-7,10-ethanopyrimido[1,2-a]azepine-2-carboxamide] | < 10 |
| O=C(NCc1ccc(F)cc1)c1nc2n(c(=O)c1O)CC1CCC2(NC(=O)C2CCCN2S(=O)(=O)c2ccco2)CC1 (centres unmarked) [Example 410] | < 10 |
